In paper PMC5557681 (Journal of veterinary cardiology : the official journal of …, 2017):
Where a name gives a salt, the structure may show the parent alone. Read-outs that look alike come from different tables or passages of the source.

Experiments:
[1] = Analyte stability during storage in citrate or EDTA treated feline plasma; format: physicochemical; details: for Time stable at room temperature: EDTA treated feline plasma; for Deviation from nominal concentration (%): EDTA treated plasma, spike CAM-D 100, clopidogrel 38.3, acid 500 ng/mL; for Time stable at −80°C: citrate treated feline plasma; for Time stable at room temperature (abstract) / Time stable at −80°C (abstract): feline plasma
[2] = in vivo, po
[3] = in vivo; details: po, 18.75 mg
[4] = cited from earlier work
[5] = humans; cited from earlier work
[6] = tested on: feline cardiogenic thromboembolism; details: cats; cited from earlier work
[7] = tested on: ADP-induced platelet aggregation; details: cited from earlier work

## COC(=O)C(c1ccccc1Cl)N1CCC2SC(=O)C=C2C1.Cl (stereo not shown) [2-oxo-clopidogrel, 2-oxo-clopidogrel hydrochloride]
[1]; all storage temperatures tested, EDTA and citrate treated plasma
  Stability in feline plasma (in words): unstable
[1]; all storage temperatures tested, EDTA treated and citrate treated plasma, data not shown
  Decrease from nominal concentration within 6 hours: > 25%

## O=C(O)[C@H](c1ccccc1Cl)N1CCc2sccc2C1 [Clopidogrel carboxylic acid, clopidogrel carboxylic acid]
[1]
  Time stable at room temperature: at least 1 week
  Time stable at −80°C: at least 9 months
  Time stable at room temperature (abstract): 1 week
  Time stable at −80°C (abstract): 9 months
[1]; 4°C, 6 h
  Deviation from nominal concentration (%): −6%
[1]; RT, 1 wk
  Deviation from nominal concentration (%): −1%
[1]; RT, 24 h
  Deviation from nominal concentration (%): −2%
[1]; RT, 48 h
  Deviation from nominal concentration (%): −10%
[1]; RT, 72 h
  Deviation from nominal concentration (%): 1%
[2]
  AUC that was extrapolated: 15–20%
[2]; 18.75 mg
  Cmax and AUC values compared with clopidogrel and CAM-D: over 100 fold
  Cmax values (range of both cats): 2,900–3,300 ng/mL
  Elimination half-life compared with clopidogrel and CAM-D: about 2 times
  Time post administration at which Cmax was reached (both cats): 1.5 to 2 h

## COC(=O)[C@H](c1ccccc1Cl)N1CCc2sccc2C1 [Clopidogrel, S-(+)-clopidogrel hydrogen sulfate, reference compound]
[1]
  Time stable at room temperature: at least 1 week
  Time stable at −80°C: at least 9 months
  Time stable at room temperature (abstract): 1 week
  Time stable at −80°C (abstract): 9 months
[1]; 4°C, 6 h
  Deviation from nominal concentration (%): −7%
[1]; RT, 1 wk
  Deviation from nominal concentration (%): 6%
[1]; RT, 24 h
  Deviation from nominal concentration (%): −2%
[1]; RT, 48 h
  Deviation from nominal concentration (%): −5%
[1]; RT, 72 h
  Deviation from nominal concentration (%): −1%
[2]; cat
  AUC that was extrapolated: < 2%
[2]; 18.75 mg
  AUClast (0 to 24hrs): 225 ng·h/mL
  Cmax: 144 ng/mL
  t1/2 (elimination half-life): 5.2 h
[3]; AUClast (0 to 24hrs)
  AUC(0-t): 374 ng·h/mL
[3]; Cmax
  Cmax: 134 ng/mL
[3]; t1/2 (elimination half-life)
  half-life: 5.4 h
[4]; healthy humans / people
  Cmax in humans: 20 ng/mL
[4]; post administration
  Tmax in people: around 1 hour
[5]
  Proportion metabolized in the liver to inactive clopidogrel carboxylic acid: 85%
[6]
  Prevention of feline cardiogenic thromboembolism: superior to aspirin

## COC(=O)C(c1ccccc1Cl)N1CCC(S)C(=CC(=O)O)C1 (stereo not shown) [H4]
[7]
  Antiplatelet activity relative to H2: about twice the activity of H2
